This note sets out measurements from patent publication US9815878B2, “Use of PEDF-derived polypeptides for preventing and/or ameliorating skin aging” (MacKay Memorial Hospital, priority 2012, dated 2017).

Series [1] concerns dermal collagen. The series can be described thus: Dermal collagen content, Masson's trichrome stained collagen area in depilated mouse skin. The note with it: for Collagen Area (fold): ointment plus microneedle (MN), twice a week for two weeks, day 14, normalized with Vehicle/MN; for collagen level (Masson's trichrome sections) versus vehicle/CT: ointment without microneedle treatment (CT). It counts as in vivo, C57BL/6 mice. The procedure: General histology was performed using hematoxylin and eosin (H&E) dye. Deparaffinized skin tissue sections were stained using Masson's Trichrome (Sigma-Aldrich, St. Louis, Mo.) according to the manufacturer's instructions; sections was examined and photographed by a Nikon Eclipse 80i light microscope (original magnification, ×400). For semi-quantitative analysis of collagen area, 10 fields from each slide were randomly selected under the light microscope, and the blue-stained area per entire area of the cross section (mm^2/mm^2) was measured using the Image-Pro Plus 4.5.1 system (Media Cybernetics).
Collagen is the major matrix component of the dermis and forms a tough fiber framework to provide the elastic property of the skin. This working example investigated whether the present PEDF peptides increase dermal collage content. Mice depilated as described in Example 1 were randomly assigned to several experimental groups and treated as follows. For each mouse, one side of the dorsal midline (about 2 cm^2) received 50 μl of ointment (the 29-mer, 20-mer, or DMSO-containing ointment) and a subsequent microneedle treatment; while the other side of the dorsal midline (about 2 cm^2) received 50 μl of the same ointment without the microneedle treatment. The treatment was given twice a week for two weeks, and the skin was left uncovered and harvested 14 days after the first treatment. Skin specimens were stained with Masson's trichrome stain (blue) for dermal collagen; representative images are provided in FIG. 2. The stained collagen area in the skin was quantified as taught above in the “Materials and Methods” section, and the results were normalized with the area of Vehicle/MN. The level of type I collagen (COL1A1) was investigated by the above-described immunoblot analysis, and the results were normalized with the level of the vehicle/CT group.

Series [2] concerns type I collagen (COL1A1). The series can be described thus: Type I collagen (COL1A1) level in mouse skin by immunoblot. It counts as in vivo, C57BL/6 mice. The note with it: ointment plus microneedle (MN), twice a week for two weeks, day 14; normalized with vehicle/CT. The protocol:
(§1) Skin tissues were homogenized in ice-cold lysis buffer containing 20 mM HEPES (pH 7.4), 150 mM NaCl, 1% SDS, 1 mM ethylenediamine tetraacetic acid (EDTA), 5 mM phenylmethanesulfonyl fluoride (PMSF), and 1 mM dithiothreitol (DTT), 1% Triton X-100, with freshly added protease inhibitor cocktail (Roche, Indianapolis, Ind.). Homogenates were then centrifuged at 12,000 g for 30 minutes at 4° C., and supernatants were then collected and stored at −70° C. Protein contents in lysates were determined using the Bradford assay. Whole cell lysates were prepared using the above lysis buffer. Aliquots of the lysates were then resolved on a SDS-PAGE and then electrotransferred to polyvinylidene difluoride (PVDF) membranes (Millipore, Bedford, Mass., USA) and processed for immunoblot analysis.
Antibodies used in the immunoblot study included anti-type I collagen 1A1 antibody (1:1000 dilution), anti-MMP-1 antibody (1:500 dilution) and anti-β-actin antibody (1:10000 dilution). Proteins of interest were detected using the appropriate IgG-HRP secondary antibody and ECL reagent (Amersham, Arlington Heights, Ill., USA). X-ray films were scanned on a Model GS-700 Imaging Densitometer (Bio-Rad Laboratories, Hercules, Calif.) and analyzed using Labworks 4.0 software. For quantification, blots from at least three independent experiments were used. […]
(In general: A western blot detects proteins with antibodies after separation by electrophoresis.)

In series [3] the test system is dermal fibroblasts. The series can be described thus: Vimentin-positive fibroblast count in dermis of treated mice. It counts as in vivo, C57BL/6 mice. As to conditions: ointment plus microneedle (MN), specimens from Example 2. The procedure:
Collagen is the major matrix component of the dermis and forms a tough fiber framework to provide the elastic property of the skin. This working example investigated whether the present PEDF peptides increase dermal collage content. Mice depilated as described in Example 1 were randomly assigned to several experimental groups and treated as follows. For each mouse, one side of the dorsal midline (about 2 cm^2) received 50 μl of ointment (the 29-mer, 20-mer, or DMSO-containing ointment) and a subsequent microneedle treatment; while the other side of the dorsal midline (about 2 cm^2) received 50 μl of the same ointment without the microneedle treatment. The treatment was given twice a week for two weeks, and the skin was left uncovered and harvested 14 days after the first treatment. Skin specimens were stained with Masson's trichrome stain (blue) for dermal collagen; representative images are provided in FIG. 2. The stained collagen area in the skin was quantified as taught above in the “Materials and Methods” section, and the results were normalized with the area of Vehicle/MN. […]
Specimens from Example 2, above, were also stained for the fibroblast marker, vimentin, and the vimentin-positive cells were counted under microscope.

Series [4] relates to dermal fibroblasts. Put plainly: Dermal fibroblast proliferation in vivo, BrdU/vimentin staining of skin sections. As to conditions: normal skin, 16 hours after peptide/MN treatment. More on the design: species or system mice. The protocol:
For animal study, BrdU was reconstituted in DMSO as stock (80 mM). 10 μl of BrdU stock mixed with 90 μl of PBS was intraperitoneally injected into mouse at 16 hours prior to euthanasia. Formalin-fixed, paraffin-embedded skin specimens were deparaffinized in xylene and rehydrated in a graded series of ethanol. The specimens were then exposed to 1 N HCl at room temperature for 1 hour for subsequent immunofluorescence study.
BrdU-labeled DNA was detected by polyclonal anti-BrdU antibody and rhodamine-conjugated donkey anti-rabbit IgG. Nuclei were counterstained with Hoechst 33258 (blue).
To investigate whether the transdermal delivery of the present PEDF peptides promotes the proliferation of dermal fibroblast in vivo, mice were intraperitoneally injected with BrdU and euthanized at 16 hours after the PEDF peptide/MN treatment or the vehicle/MN treatment. Skin sections were stained for vimentin (green) and BrdU (red). The level of BrdU- and vimentin-double positive cells was expressed as the percentage of BrdU- and vimentin-double positive cells per total vimentin-positive cells (the BrdU/Vimentin Labeling Index), and the results are summarized in Table 4.

The subject of series [5] is MMP-1. The series can be described thus: UVB-induced MMP-1 protein expression in WS-1 cells, western blotting. It counts as cell-based, human. The note with it: for MMP-1 Expression Level (%): Vehicle/UVB set to 100%; for MMP-1 protein level relative to vehicle/UVB group: pre-incubation with peptide. The protocol: Human skin fibroblast WS-1 cell line was obtained from Food Industry Research and Development Institute (Hsin-Chu, Taiwan). The WS-1 cells were maintained in a 37° C., 5% CO2 humidified incubator as monolayers in culture flasks. They were grown in 10% FBS-DMEM supplemented with 2 mM L-glutamine, 0.1 mM non-essential amino acids, 1% penicillin/streptomycin. For passage, near-confluent cells were sub-cultured by 0.25% trypsin/EDTA.
as §1
Antibodies used in the immunoblot study included anti-type I collagen 1A1 antibody (1:1000 dilution), anti-MMP-1 antibody (1:500 dilution) and anti-β-actin antibody (1:10000 dilution). Proteins of interest were detected using the appropriate IgG-HRP secondary antibody and ECL reagent (Amersham, Arlington Heights, Ill., USA). X-ray films were scanned on a Model GS-700 Imaging Densitometer (Bio-Rad Laboratories, Hercules, Calif.) and analyzed using Labworks 4.0 software. For quantification, blots from at least three independent experiments were used.
WS-1 were seeded on a six-well plate at a density of 1×10^5 cells per well and grown in the 10% FBS-DMEM growth medium for 24 hours and then incubated with 1% FBS-DMEM supplemented with or without 100 nM PEDF peptide for further 24 hours. The cells were washed twice with phosphate buffered saline (PBS) and exposed to UVB radiation covered with PBS. The UVB treatment was conducted in a cell culture hood by using a UVB lamp (model XL-1000B, Spectrolinker™ Inc.) at a final dose of 15 mJ/cm^2 for about 100 seconds. Cell viability was assayed using trapan blue exclusion assay (>95%). After UVB irradiation, PBS was replaced with 1% FBS-DMEM with or without PEDF peptide for further 48 hours and then protein extracts were assayed by western blotting for the expression of MMP-1 protein. Cells that were not subjected to UVB irradiation were used as control (normal). The expression level of MMP-1 was normalized with the expression level in the Vehicle/UVB group (set to 100%), and quantitative results are summarized in Table 6.

Series [6] has as its system Human dermal fibroblasts (WS-1 cells). The series can be described thus: Cell viability of WS-1 cells pretreated with peptide. It counts as cell-based. The note with it: 100 nM for 24 hours, data not shown. From the text: (§2) According to our preliminary study, cell viability was greater than 95% relative to that of the control after exposure to 15 mJ/cm^2 UVB irradiation (data not shown). […] Therefore, the exposure dose was set at 15 mJ/cm^2 in the following experiment.

Series [7] relates to primary mouse dermal fibroblasts. Put plainly: Cell viability of primary mouse dermal fibroblasts pretreated with peptide. It counts as cell-based. The note with it: 100 nM for 24 hours, data not shown.
Description: as §2

The test system of series [8] is Human dermal fibroblasts (WS-1 cells). Put plainly: Cell migration of WS-1 cells, transwell assay. As to conditions: 100 nM for 24 hours, data not shown. It counts as cell-based.
Description: as §2

For series [9], the system named is primary mouse dermal fibroblasts. The series can be described thus: Cell migration of primary mouse dermal fibroblasts, transwell assay. It counts as cell-based. The note with it: 100 nM for 24 hours, data not shown.
Setting [10] is: 100 nM peptide 24 h before and 48 h after UVB 15 mJ/cm^2.

Consider “Ac-SLGAEQRTESIIHRALYYDLISSPDIHGT-NH2 [29-mer]”, for which, in series [1], the “Collagen Area (fold)” value came out at 1.7 ± 0.14 fold. Further, the “collagen level (Masson's trichrome sections) versus vehicle/CT” value in series [1] is listed as “no significant difference”. Further, the “COL1A1 Level (fold)” value in [2] is 1.7 ± 0.24 fold. In addition, the “Vimentin+ Cells per mm^2” value in [3] is recorded as 1688 ± 197 Cells per mm^2. Further, the “BrdU/Vimentin Labeling Index (%)” value in series [4] is reported as 16.9 ± 1.9 %. The “MMP-1 Expression Level (%)” value is on record as 42 ± 3.3 % in [5] (setting [10]) and 5 ± 2.3% in series [5] (100 nM peptide, no UVB irradiation). Moreover, in series [5], the “MMP-1 protein level relative to vehicle/UVB group” value was “about half”. The cell viability result in [6] and in series [7] was “did not cause any significant change in cell viability” in each case. For the same substance, the cell migration entry in series [8] and in [9] was “did not cause any significant change in cell migration” throughout.

In the case of “SLGAEQRTESIIHRALYYDL [20-mer, synthetic peptide corresponding to residues 93-112 of human PEDF]”, in series [1], the “Collagen Area (fold)” value is given as 1.6 ± 0.11 fold and the “collagen level (Masson's trichrome sections) versus vehicle/CT” value is “no significant difference”. Also, the “COL1A1 Level (fold)” value in series [2] was 1.8 ± 0.20 fold. Also, in [3], the “Vimentin+ Cells per mm^2” value turned out to be 1745 ± 143 Cells per mm^2. The “BrdU/Vimentin Labeling Index (%)” value in series [4] is recorded as 17.3 ± 3.2 %. Further, the “MMP-1 Expression Level (%)” value in series [5] (setting [10]) came out at 50 ± 5.1 %. Also, in series [5], the “MMP-1 protein level relative to vehicle/UVB group” value is “about half”.
